Results from patent US20260022142A1, “MACROCYCLIC IMMUNOMODULATORS” (Bristol-Myers Squibb Company, priority 2022, published 2026).
Bridge positions count the residues as written; N and C are the ends. Square brackets hold non-standard residues; d marks the D form. Peptide text beside a SMILES is read from it. * marks the point of attachment. ξ: configuration not given here. Bip = N[C@@H](Cc1ccc(-c2ccccc2)cc1)C(=O)O; Phe(3-Me) = Cc1cccc(C[C@H](N)C(=O)O)c1; 2Pal = N[C@@H](Cc1ccccn1)C(=O)O; 3Pal = N[C@@H](Cc1cccnc1)C(=O)O; 4Pal = N[C@@H](Cc1ccncc1)C(=O)O; d2Pal = N[C@H](Cc1ccccn1)C(=O)O; Cha = N[C@@H](CC1CCCCC1)C(=O)O; Cit = NC(=O)NCCC[C@H](N)C(=O)O; Phg = N[C@H](C(=O)O)c1ccccc1; hCys = N[C@@H](CCS)C(=O)O; Carboxymethyl = O=C(O)C*; Orn = NCCC[C@H](N)C(=O)O; Aun = NCCCCCCCCCCC(=O)O; Dab = NCC[C@H](N)C(=O)O; Dap = NC[C@H](N)C(=O)O; ξT = CC(O)C(N)C(=O)O

What follows are compounds tested against T1, PD-1/PD-L1 interaction (PE-labeled human PD-L1-Ig binding to Jurkat cell line over-expressing human PD-1) (Homo sapiens, UniProt Q15116) (assay: Jurkat-PD-1 Cell Binding High-Content Screening Assay (CBA)). Conditions: Jurkat cell line over-expressing human PD-1; PE-labeled PD-L1-Ig 20 nM final; read-out: Jurkat hPD1-PDL1 IC50.
T1 construct: expressed in transfected cells; host or cells: Jurkat
T1 sequence (Q15116 25-288): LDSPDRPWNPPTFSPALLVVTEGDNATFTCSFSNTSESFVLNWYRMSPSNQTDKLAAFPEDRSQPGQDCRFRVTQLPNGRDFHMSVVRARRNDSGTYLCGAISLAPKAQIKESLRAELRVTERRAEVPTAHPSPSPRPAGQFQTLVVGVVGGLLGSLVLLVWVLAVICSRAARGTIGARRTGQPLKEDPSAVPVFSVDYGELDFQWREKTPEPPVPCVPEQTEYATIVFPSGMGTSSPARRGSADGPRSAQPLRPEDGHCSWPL
Type: cell-based
Summary of the method: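 Binding of fluorescent PD-L1-Ig (phycoerythrin on Ig tag, 20 nM final, 1 h) measured by high-content imaging of fixed, Hoechst-counterstained Jurkat-hPD-1 cells. Compound added 2 h at 37° C beforehand, in DMEM with 10% fetal calf serum.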

Compared with `Cc1cccc(C[C@@H]2NC(=O)[C@H](CC(=O)O)NC(=O)[C@H](Cc3ccc(OCC(=O)O)cc3)NC(=O)[C@H](CN)NC(=O)CSC[C@@H](C(=O)N[C@@H](CCN)C(=O)NCCCCCCCCCCC(=O)O)NC(=O)[C@H](c3ccccc3)NC(=O)[C@H](C(C)C)NC(=O)[C@H](CC3CCCCC3)NC(=O)[C@H](CCN)NC(=O)[C@@H](CC(C)C)NC(=O)[C@H](CCCN)NC(=O)[C@H](Cc3ccc(O)cc3)NC(=O)[C@H](Cc3ccc(-c4ccccc4)cc3)NC(=O)[C@H](C(C)C)NC2=O)c1` [Compound 2762] ({CH2CO}-[Dap]Y(Carboxymethyl)D[Phe(3-Me)]V[Bip]Y[Orn][dL][Dab][Cha]V[Phg]C[Dab][Aun]-OH; thioether N-14), `Cc1cccc(C[C@@H]2NC(=O)[C@H](CC(=O)O)NC(=O)[C@H](Cc3ccc(OCC(=O)O)cc3)NC(=O)[C@H](CN)NC(=O)CSC[C@@H](C(=O)N[C@@H](CCN)C(=O)NCCCCCCCCCCC(=O)O)NC(=O)[C@@H](Cc3ccccn3)NC(=O)[C@H](C(C)C)NC(=O)[C@H](CC3CCCCC3)NC(=O)[C@H](CCN)NC(=O)[C@@H](CC(C)C)NC(=O)[C@H](CCCN)NC(=O)[C@H](Cc3ccc(O)cc3)NC(=O)[C@H](Cc3ccc(-c4ccccc4)cc3)NC(=O)[C@H](C(C)C)NC2=O)c1` [Compound 2764] ({CH2CO}-[Dap]Y(Carboxymethyl)D[Phe(3-Me)]V[Bip]Y[Orn][dL][Dab][Cha]V[d2Pal]C[Dab][Aun]-OH; thioether N-14) is 2.9-fold lower in IC50: 197 nM for the first, 68.9 nM for the second. The second is the more potent here.

`Cc1cccc(C[C@@H]2NC(=O)[C@H](CC(=O)O)NC(=O)[C@H](Cc3ccc(OCC(=O)O)cc3)NC(=O)[C@H](CN)NC(=O)CSC[C@@H](C(=O)N[C@@H](CCN)C(=O)NCCCCCCCCCCC(=O)O)NC(=O)[C@H](Cc3ccccn3)NC(=O)[C@H](C(C)C)NC(=O)[C@H](CC(C)C)NC(=O)[C@H](CCN)NC(=O)[C@@H](CC(C)C)NC(=O)[C@H](CCCN)NC(=O)[C@H](Cc3ccc(O)cc3)NC(=O)[C@H](Cc3ccc(-c4ccccc4)cc3)NC(=O)[C@H](C(C)C)NC2=O)c1` [Compound 2763] ({CH2CO}-[Dap]Y(Carboxymethyl)D[Phe(3-Me)]V[Bip]Y[Orn][dL][Dab]LV[2Pal]C[Dab][Aun]-OH; thioether N-14) and `Cc1cccc(C[C@@H]2NC(=O)[C@H](CC(=O)O)NC(=O)[C@H](Cc3ccc(OCC(=O)O)cc3)NC(=O)[C@H](CN)NC(=O)CSC[C@@H](C(=O)N[C@@H](CCN)C(=O)NCCCCCCCCCCC(=O)O)NC(=O)[C@H](Cc3cccnc3)NC(=O)[C@H](C(C)C)NC(=O)[C@H](CC(C)C)NC(=O)[C@H](CCN)NC(=O)[C@@H](CC(C)C)NC(=O)[C@H](CCCN)NC(=O)[C@H](Cc3ccc(O)cc3)NC(=O)[C@H](Cc3ccc(-c4ccccc4)cc3)NC(=O)[C@H](C(C)C)NC2=O)c1` [Compound 2765] ({CH2CO}-[Dap]Y(Carboxymethyl)D[Phe(3-Me)]V[Bip]Y[Orn][dL][Dab]LV[3Pal]C[Dab][Aun]-OH; thioether N-14) are within 1.5-fold of each other in IC50: 54.9 nM for the first, 62.4 nM for the second.

`Cc1cccc(C[C@@H]2NC(=O)[C@H](CC(=O)O)NC(=O)[C@H](Cc3ccc(OCC(=O)O)cc3)NC(=O)[C@H](CN)NC(=O)CSC[C@@H](C(=O)N[C@@H](CCN)C(=O)NCCCCCCCCCCC(=O)O)NC(=O)[C@H](Cc3cccnc3)NC(=O)[C@H](C(C)C)NC(=O)[C@H](CC3CCCCC3)NC(=O)[C@H](CCN)NC(=O)[C@@H](CC(C)C)NC(=O)[C@H](CCCN)NC(=O)[C@H](Cc3ccc(O)cc3)NC(=O)[C@H](Cc3ccc(-c4ccccc4)cc3)NC(=O)[C@H](C(C)C)NC2=O)c1` [Compound 2766] ({CH2CO}-[Dap]Y(Carboxymethyl)D[Phe(3-Me)]V[Bip]Y[Orn][dL][Dab][Cha]V[3Pal]C[Dab][Aun]-OH; thioether N-14) and `Cc1cccc(C[C@@H]2NC(=O)[C@H](CC(=O)O)NC(=O)[C@H](Cc3ccc(OCC(=O)O)cc3)NC(=O)[C@H](CN)NC(=O)CSC[C@@H](C(=O)N[C@@H](CCN)C(=O)NCCCCCCCCCCC(=O)O)NC(=O)[C@H](Cc3ccncc3)NC(=O)[C@H](C(C)C)NC(=O)[C@H](CC3CCCCC3)NC(=O)[C@H](CCN)NC(=O)[C@@H](CC(C)C)NC(=O)[C@H](CCCN)NC(=O)[C@H](Cc3ccc(O)cc3)NC(=O)[C@H](Cc3ccc(-c4ccccc4)cc3)NC(=O)[C@H](C(C)C)NC2=O)c1` [Compound 2768] ({CH2CO}-[Dap]Y(Carboxymethyl)D[Phe(3-Me)]V[Bip]Y[Orn][dL][Dab][Cha]V[4Pal]C[Dab][Aun]-OH; thioether N-14) are within 1.5-fold of each other in IC50: 55.9 nM for the first, 55.2 nM for the second.

Going from `Cc1cccc(C[C@@H]2NC(=O)[C@H](CC(=O)O)NC(=O)[C@H](Cc3ccc(OCC(=O)O)cc3)NC(=O)[C@H](CN)NC(=O)CSC[C@@H](C(=O)N[C@@H](CCN)C(=O)NCCCCCCCCCCC(=O)O)NC(=O)[C@H](Cc3ccncc3)NC(=O)[C@H](C(C)C)NC(=O)[C@H](CC(C)C)NC(=O)[C@H](CCN)NC(=O)[C@@H](CC(C)C)NC(=O)[C@H](CCCN)NC(=O)[C@H](Cc3ccc(O)cc3)NC(=O)[C@H](Cc3ccc(-c4ccccc4)cc3)NC(=O)[C@H](C(C)C)NC2=O)c1` [Compound 2767] ({CH2CO}-[Dap]Y(Carboxymethyl)D[Phe(3-Me)]V[Bip]Y[Orn][dL][Dab]LV[4Pal]C[Dab][Aun]-OH; thioether N-14) to `Cc1cccc(C[C@@H]2NC(=O)[C@H](CC(=O)O)NC(=O)[C@H](Cc3ccc(OCC(=O)O)cc3)NC(=O)[C@H](CN)NC(=O)CSC[C@@H](C(=O)N[C@@H](CCN)C(=O)NCCCCCCCCCCC(=O)O)NC(=O)[C@H](c3ccccc3)NC(=O)[C@H](C(C)C)NC(=O)[C@H](CC(C)C)NC(=O)[C@H](CCN)NC(=O)[C@@H](CC(C)C)NC(=O)[C@H](CCCN)NC(=O)[C@H](Cc3ccc(O)cc3)NC(=O)[C@H](Cc3ccc(-c4ccccc4)cc3)NC(=O)[C@H](C(C)C)NC2=O)c1` [Compound 2772] ({CH2CO}-[Dap]Y(Carboxymethyl)D[Phe(3-Me)]V[Bip]Y[Orn][dL][Dab]LV[Phg]C[Dab][Aun]-OH; thioether N-14), the IC50 rises from 42.7 nM to 67.7 nM (1.6-fold).

Compared with `Cc1cccc(C[C@@H]2NC(=O)[C@H](CC(=O)O)NC(=O)[C@H](Cc3ccc(OCC(=O)O)cc3)NC(=O)[C@H](CN)NC(=O)CSC[C@@H](C(=O)N[C@@H](CCN)C(=O)NCCCCCCCCCCC(=O)O)NC(=O)[C@@H](CCC(N)=O)NC(=O)[C@H](C(C)C)NC(=O)[C@H](CC3CCCCC3)NC(=O)[C@H](CCN)NC(=O)[C@@H](CC(C)C)NC(=O)[C@H](CCCN)NC(=O)[C@H](Cc3ccc(O)cc3)NC(=O)[C@H](Cc3ccc(-c4ccccc4)cc3)NC(=O)[C@H](CC(C)C)NC2=O)c1` [Compound 2769] ({CH2CO}-[Dap]Y(Carboxymethyl)D[Phe(3-Me)]L[Bip]Y[Orn][dL][Dab][Cha]V[dQ]C[Dab][Aun]-OH; thioether N-14), `Cc1cccc(C[C@@H]2NC(=O)[C@H](CC(=O)O)NC(=O)[C@H](Cc3ccc(OCC(=O)O)cc3)NC(=O)[C@H](CN)NC(=O)CSC[C@@H](C(=O)N[C@@H](CCN)C(=O)NCCCCCCCCCCC(=O)O)NC(=O)[C@@H](CCC(N)=O)NC(=O)[C@H](C(C)C)NC(=O)[C@H](CC(C)C)NC(=O)[C@H](CCN)NC(=O)[C@@H](CC(C)C)NC(=O)[C@H](CCCN)NC(=O)[C@H](Cc3ccc(O)cc3)NC(=O)[C@H](Cc3ccc(-c4ccccc4)cc3)NC(=O)[C@H](C(C)C)NC2=O)c1` [Compound 2770] ({CH2CO}-[Dap]Y(Carboxymethyl)D[Phe(3-Me)]V[Bip]Y[Orn][dL][Dab]LV[dQ]C[Dab][Aun]-OH; thioether N-14) is 1.6-fold lower in IC50: 60.7 nM for the first, 37.8 nM for the second.

First: Cc1cccc(C[C@@H]2NC(=O)[C@H](CC(=O)O)NC(=O)[C@H](Cc3ccc(OCC(=O)O)cc3)NC(=O)[C@H](CN)NC(=O)CSC[C@@H](C(=O)N[C@@H](CCN)C(=O)NCCCCCCCCCCC(=O)O)NC(=O)[C@@H]([C@H](C)O)NC(=O)[C@H](C(C)C)NC(=O)[C@H](CC(C)C)NC(=O)[C@H](CCN)NC(=O)[C@@H](CC(C)C)NC(=O)[C@H](CCCN)NC(=O)[C@H](Cc3ccc(O)cc3)NC(=O)[C@H](Cc3ccc(-c4ccccc4)cc3)NC(=O)[C@H](C(C)C)NC2=O)c1 [Compound 2771] ({CH2CO}-[Dap]Y(Carboxymethyl)D[Phe(3-Me)]V[Bip]Y[Orn][dL][Dab]LV[dT]C[Dab][Aun]-OH; thioether N-14)
Second: Cc1cccc(C[C@@H]2NC(=O)[C@H](CC(=O)O)NC(=O)[C@H](Cc3ccc(O)cc3)NC(=O)[C@H](CC(N)=O)NC(=O)CSC[C@@H](C(=O)N[C@@H](CCCN)C(=O)NCCCCCCCCCCC(=O)O)NC(=O)C(C(C)O)NC(=O)[C@H](C(C)C)NC(=O)[C@H](CC(C)C)NC(=O)[C@H](CCN)NC(=O)[C@@H](CC(C)C)NC(=O)[C@H](CCCN)NC(=O)[C@H](CCCNC(N)=O)NC(=O)[C@H](Cc3ccc(-c4ccccc4)cc3)NC(=O)[C@H](C(C)C)NC2=O)c1 (stereo partly drawn) [Compound 2774] ({CH2CO}-NYD[Phe(3-Me)]V[Bip][Cit][Orn][dL][Dab]LV[ξT]C[Orn][Aun]-OH; thioether N-14)
The IC50 of the first is 1.8-fold lower: 39.5 nM for the first, 71.9 nM for the second. The first is the more potent here.

First: Cc1cccc(C[C@@H]2NC(=O)[C@H](CC(=O)O)NC(=O)[C@H](Cc3ccc(O)cc3)NC(=O)[C@H](CC(N)=O)NC(=O)CSC[C@@H](C(=O)N[C@@H](CCN)C(=O)NCCCCCCCCCCC(=O)O)NC(=O)[C@H](CCC(=O)O)NC(=O)[C@H](C(C)C)NC(=O)[C@H](CC(C)C)NC(=O)[C@H](CCN)NC(=O)[C@@H](CC(C)C)NC(=O)[C@H](CCCN)NC(=O)[C@H](CCCNC(N)=O)NC(=O)[C@H](Cc3ccc(-c4ccccc4)cc3)NC(=O)[C@H](C(C)C)NC2=O)c1 [Compound 2773] ({CH2CO}-NYD[Phe(3-Me)]V[Bip][Cit][Orn][dL][Dab]LVEC[Dab][Aun]-OH; thioether N-14)
Second: Cc1cccc(C[C@@H]2NC(=O)[C@H](CC(=O)O)NC(=O)[C@H](Cc3ccccc3)NC(=O)[C@H](CC(N)=O)NC(=O)CSCC[C@@H](C(=O)N[C@@H](CCCN)C(=O)NCCCCCCCCCCC(=O)O)NC(=O)[C@H](CCC(=O)O)NC(=O)[C@H](C(C)C)NC(=O)[C@H](CC(C)C)NC(=O)[C@H](CCN)NC(=O)[C@@H](CC(C)C)NC(=O)[C@H](CCCN)NC(=O)[C@H](CCCNC(N)=O)NC(=O)[C@H](Cc3ccc(-c4ccccc4)cc3)NC(=O)[C@H](C(C)C)NC2=O)c1 [Compound 2775] ({CH2CO}-NFD[Phe(3-Me)]V[Bip][Cit][Orn][dL][Dab]LVE[hCys][Orn][Aun]-OH; thioether N-14)
The IC50 of the first is 7.9-fold lower: 22 nM for the first, 173 nM for the second. The first is the more potent here.
